Assays:
[1] = test system: M2-10B4 mouse marrow stromal cell line; assay: Matrix mineralization in M2 cells (von Kossa staining, 45Ca incorporation assay); assay type: cell-based
Description: Cells: M2-10B4 mouse marrow stromal cell line obtained from American Type Culture Collection (ATCC, Rockville, Md., U.S.A.) was derived from bone marrow stromal cells of a (C57BL/6J×C3H/HeJ) F1 mouse, and support human and murine myelopoiesis in long-term cultures (as per ATCC) and have the ability to differentiate into osteoblastic and adipocytic cells. Unless specified, these cells were cultured in RPMI 1640 containing 10% heat-inactivated FBS, and supplemented with 1 mM sodium pyruvate, 100 U/ml penicillin, and 100 […] (all from Irvine Scientific).
(§1) Von Kossa and oil red O staining—Matrix mineralization in cell monolayers was detected by silver nitrate staining as previously described. Oil red O staining for detection of adipocytes was performed as previously described.
^45Ca incorporation assay—Matrix mineralization in cell monolayers was quantified using the ^45Ca incorporation assay as previously described.
M2 cells at confluence were treated in osteogenic medium with control vehicle or 5 μM oxysterols, alone or in combination as indicated. After 14 days, mineralization was identified by a von Kossa staining, which appears black. FIG. 3C is a depiction of von Kossa staining of M2 cells exposed to various conditions.
M2 cells were treated with control vehicle (C) or a combination of 22R and 20S oxysterols at increasing concentrations. After 14 days, matrix mineralization in cultures was quantified using a ^45Ca incorporation assay. […] FIG. 3D is a bar graph depicting the effect of a combination of oxysterols at various doses on calcium incorporation in M2 cells.
Next, a combination of 22R and 20S oxysterols (RS, 2.5 μM each) were added in the presence or absence of SC as indicated. After 3 days, ALP activity was measured as described earlier. […] (B) M2 cells were treated as described in (A) and after 10 days matrix mineralization in cultures was quantified by a ^45Ca incorporation assay as described earlier. Results from a representative of three experiments are shown, reported as the mean±SD of quadruplicate determinations, normalized to protein concentration. (C) M2 cells were pretreated with 20 μM SC for 4 hours, followed by the addition of RS in the presence or absence of SC as described above. After 8 days, total RNA was isolated and analyzed for osteocalcin (Osc) and 18S rRNA expression by Northern blotting as previously described. Data from densitometric analysis of the Northern blot is shown in (D) as the average of duplicate samples, normalized to 18S rRNA. (E) M2 cells at confluence were pretreated for 2 hours with control vehicle (C), or PLA2 inhibitors ACA (25 μM) and AACOCF3 (AAC, 20 μM), in osteogenic medium. Next, a combination of 22R and 20S oxysterols (RS, 2.5 μM) was added in the presence or absence of the inhibitors as indicated. After 3 days, ALP activity was measured as previously described. Data from a representative of three experiments are shown, reported as the mean±SD of quadruplicate determinations, normalized to protein concentration (p<0.01 for RS vs. RS+ACA and RS+AAC). (F) M2 cells were treated as described in (E). After 10 days, matrix minerliazation in cultures was quantified using a ^45Ca incorporation assay as previously described. Results from a representative of three experiments are shown, reported as the mean of quadruplicate determinations±SD, normalized to protein concentration (p<0.01 for RS vs. RS+ACA and RS+AAC).
(A) M2 cells at confluence were pretreated for four hours with RPMI containing 1% FBS, followed by treatment with control vehicle or 5 μM 20S oxysterol for 1, 4, or 8 hours. Next total cell extracts were prepared and analyzed for levels of native or phosphorylated ERK (pERK) using specific antibodies as previously described.

[2] = test system: lipoprotein lipase (LPL); assay: Northern blot for lipoprotein lipase in troglitazone-treated M2 cells; assay type: cell-based, mouse; conditions: 10 μM Tro, 10 μM 20S, 10 days
Description: RNA isolation and Northern blot analysis—Following treatment of cells under appropriate experimental conditions, total RNA was isolated using the RNA isolation kit from Stratagene (La Jolla, Calif., U.S.A.). Total RNA ([…]) was run on a 1% agarose/formaldehyde gel and transferred to Duralon-UV membranes (Strategene, Calif., U.S.A.) and cross-linked with UV light. The membranes were hybridized overnight at 60 degree C. with ^32P-labeled mouse osteocalcin cDNA probe, mouse lipoprotein lipase (LPL), mouse adipocyte protein 2 (aP2) PCR-generated probes, human 28S or 18S rRNA probes obtained from Geneka Biotechnology (Montreal, Quebec, Canada) and Maxim Biotech (San Francisco, Calif., U.S.A.), respectively. […] The extent of gene induction was determined by densitometry.
Test 2: (A) M2 cells at confluence were treated in RPMI containing 10% FBS with control vehicle or 10 μM troglitazone (Tro) in the absence or presence of 10 μM 20S or 22S oxysterols. After 10 days, adipocytes were visualized by oil Red O staining and quantified by light microscopy, shown in (B). […] After 10 days, total RNA was isolated and analyzed for lipoprotein lipase (LPL), adipocyte P2 gene (aP2) or 18S rRNA expression by Northern blotting as described (Ref). […]

[3] = test system: M2 cells; assay: Adipogenesis of troglitazone-treated M2 cells (oil Red O staining, adipocyte count); assay type: cell-based, mouse; conditions: M2 cells treated with Tro 10 μM, oxysterols 10 μM, 10 days
Description: as §1
Test 1: M2 cells at 90% confluence were treated with vehicle (C), PPAR-γ activator, troglitazone 10 uM (Tro), alone or in combination with 10 μM oxysterols 20S-, 22R-, or 25S-hydroxycholesterol. After 8 days, adipocytes were identified by oil Red 0 staining and quantified by counting under a phase contrast microscope. FIG. 6A is a bar graph depicting the effect of oxysterols on reducing adipogenesis of MSC.
Test 2: (A) M2 cells at confluence were treated in RPMI containing 10% FBS with control vehicle or 10 μM troglitazone (Tro) in the absence or presence of 10 μM 20S or 22S oxysterols. After 10 days, adipocytes were visualized by oil Red O staining and quantified by light microscopy, shown in (B). Data from a representative of four experiments are shown, reported as the mean SD of quadruplicate determinations (p<0.001 for Tro vs. Tro+20S and Tro+22S). (C) M2 cells were treated at confluence with 10 μM Tro, alone or in combination with 10 μM 20S oxysterol. After 10 days, total RNA was isolated and analyzed for lipoprotein lipase (LPL), adipocyte P2 gene (aP2) or 18S rRNA expression by Northern blotting as described (Ref). Data from densitometric analysis of the Northern blot is shown in (D) as the average of duplicate samples, normalized to 18S rRNA.

[4] = individual oxysterols 0.5-10 μM or combinations, up to 14 days

| Structure (SMILES) | induction of mineralization [1, 4] | expression of lipoprotein lipase (LPL) [2] | inhibition of adipogenesis [3] | induction of mineralization ([1]; TO treatment, after 10 days) |
| --- | --- | --- | --- | --- |
| CC(C)CCC[C@](C)(O)[C@H]1CC[C@H]2[C@@H]3CC=C4C[C@@H](O)CC[C@]4(C)[C@H]3CC[C@@]21C [20S, 20(S)-hydroxycholesterol] | unable to induce | inhibition | inhibited adipogenesis | – |
| CC(C)CC[C@@H](O)[C@@H](C)[C@H]1CC[C@H]2[C@@H]3CC=C4C[C@@H](O)CC[C@]4(C)[C@H]3CC[C@]12C [22R, 22(R)-hydroxycholesterol] | unable to induce | – | inhibited adipogenesis | – |
| CC(C)CC[C@H](O)[C@@H](C)[C@H]1CC[C@H]2[C@@H]3CC=C4C[C@@H](O)CC[C@]4(C)[C@H]3CC[C@]12C [22S, 22(S)-hydroxycholesterol] | unable to induce | – | inhibited adipogenesis | – |
| O=S(=O)(c1ccccc1)N(CC(F)(F)F)c1ccc(C(O)(C(F)(F)F)C(F)(F)F)cc1 [TO, TO-901317] | – | – | – | did not induce |
